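Interpolation was linear, between the two tested concentrations surrounding the appropriate level; five concentrations were tested over 48 hours in 96-well plates. GI50 marks 50% less growth. TGI is the concentration that stops growth completely.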 Where a SMILES comes first, the peptide text is derived from it. [ ]: non-standard residue; d: D form. The star is where a group is joined. Phe(4-NO2) = N[CH](Cc1ccc([N+](=O)[O-])cc1)C(=O)O; Boc = CC(C)(C)OC(=O)*
Assays:
Assay in all cases: NCI tumour cell line growth inhibition, 48 h
[1] = tested on: OVCAR-8 ovarian
[2] = tested on: HS 578T breast
[3] = tested on: HCT-15 colon
[4] = tested on: DU-145 prostate
[5] = tested on: NCI-H460 lung
[6] = tested on: SNB-19 CNS
[7] = tested on: PC-3 prostate
[8] = tested on: U251 CNS
[9] = tested on: HOP-92 NSCLC

Structure (SMILES) | TGI [1] [µM] | TGI [2] [µM] | TGI [3] [µM] | TGI [4] [µM] | TGI [5] [µM] | TGI [6] [µM] | TGI [7] [µM] | TGI [8] [µM] | TGI [9] [µM] | GI50 [1] [µM] | GI50 [2] [µM] | GI50 [3] [µM] | GI50 [4] [µM] | GI50 [5] [µM] | GI50 [7] [µM] | GI50 [8] [µM] | GI50 [9] [µM] | GI50 [6] [µM]
O=C1c2ccccc2C2(c3ccc(F)cc3)NCCN12 (stereo unspecified) | > 100 | > 100 | > 100 | > 100 | > 100 | > 100 | > 100 | > 100 |  |  |  |  |  |  |  |  |  | 
COC(=O)c1c2c(cc3c1CC1(Cc4cc5c(c(C)c4C1)CCC5)C3)CCC2 (stereo unspecified) | > 100 | > 100 | > 100 | > 100 | > 100 | > 100 | > 100 | > 100 | > 100 |  |  |  |  |  |  |  |  | 
O=Nc1c(-c2c(O)[nH]c3ccc(I)cc23)[nH]c2ccccc12 | > 43.4 | > 29.8 | > 39.9 | > 24.6 | > 47.4 | > 62.1 | > 27.9 | > 40.9 | > 27.7 |  |  |  |  |  |  |  |  | 
COc1cc2nc(N3CCC[C@H](NC4=CC(=O)c5ccccc5C4=O)C3)nc(N)c2cc1OC | 4.28 | 4.64 | 4.86 | 3.58 | 4.01 |  | 3.67 | 3.18 |  | 2.06 | 1.97 | 2.01 | 1.96 | 1.96 | 1.75 | 1.65 |  | 
O=C1C=CC(=O)c2c(O)c(N3CCOCC3)c(Cl)c(O)c21 | 1 | 1.7 | 0.403 | 2.93 | 2.71 | 3.17 | 1.56 | 2.62 | 0.675 |  |  |  |  |  |  |  |  | 
COC(=O)C1C(=O)CC(C)(O)C(C(=O)OC)C1c1ccc(N(C)C)cc1 (stereo unspecified) | > 100 |  | > 100 | > 100 | > 100 | > 100 | > 100 | > 100 | > 100 |  |  |  |  |  |  |  |  | 
CSc1nnc(SCc2nn3c(=O)cc(C)nc3s2)s1 | > 100 | > 100 | > 100 | > 100 | > 100 | > 100 | > 100 | > 100 | > 100 |  |  |  |  |  |  |  |  | 
Cc1c(OCc2cccc3ccccc23)ccc2c(=O)cc(SCCN3CCOCC3)oc12 | > 100 | > 100 | > 100 | > 100 | > 100 | > 100 | > 100 | > 100 | > 100 |  |  |  |  |  |  |  |  | 
COC(=O)C(Cc1c[nH]c2ccccc12)NC(=O)C(Cc1c[nH]c2ccccc12)NC(=O)C(Cc1c[nH]c2ccccc12)NC(=O)C(Cc1c[nH]c2ccccc12)NC(=O)C(Cc1c[nH]c2ccccc12)NC(=O)C(Cc1c[nH]c2ccccc12)NC(=O)C(Cc1c[nH]c2ccccc12)NC(=O)OC(C)(C)C (stereo unspecified) (Boc-WWWWWWW-OMe; configuration not given here) | > 100 |  | > 100 | > 100 | > 100 | > 100 | > 100 | > 100 |  |  |  |  |  |  |  |  |  | 
Cc1nc2ccc(Br)cc2c(=O)n1-c1ccc(N)cc1 | > 100 | > 100 | > 100 | > 100 | > 100 | > 100 | > 100 |  | > 100 |  |  |  |  |  |  |  |  | 
O=C(Nc1ccc(-n2cc(-c3ccncc3)c(-c3ccc(O)c(Cl)c3)n2)cc1)c1ccc(Cl)c(C(F)(F)F)c1 | 9.58 | 3.1 | 4.39 | > 50 | > 50 | > 50 | > 50 | 6.76 | 4.55 | 1.84 | 0.702 | 1.21 | 3.35 | 1.94 | 1.37 | 0.867 | 1.07 | 2.52
COc1ccc(OC)c2c(C)ccnc12 | > 79.2 |  | > 100 | > 100 | > 100 | > 100 | > 100 | > 100 | 90.8 |  |  |  |  |  |  |  |  | 
Oc1cccc2c(Br)ccnc12 | > 36.2 | 50.5 | 24.2 | 39.5 | 42 | 64.1 | 38.1 | 20.4 | 23 |  |  |  |  |  |  |  |  | 
O=C1C=C(N2CCN(c3ncccn3)CC2)C(=O)c2c(O)ccc(O)c21 | > 100 | > 100 | > 100 | > 100 | > 100 | > 100 | > 100 | > 100 | > 100 |  |  |  |  |  |  |  |  | 
Cn1c2ccccc2n2c3ncccc3c(=O)cc12 | > 100 |  | > 100 | > 100 | > 100 | > 100 |  | > 100 | > 100 |  |  |  |  |  |  |  |  | 
CCOC(=O)CCC(NC(=O)C(Cc1ccc([N+](=O)[O-])cc1)NC(=O)OC(C)(C)C)C(=O)NC(CCC(=O)OCC)C(=O)OCC (stereo unspecified) (Boc-[Phe(4-NO2)]-Glu(OEt)-Glu(OEt)-OEt; configuration not given here) | 40.3 | 53.1 | > 100 |  | 57.3 | > 100 | 39.5 | 44.6 | 34.7 |  |  |  |  |  |  |  |  | 
O=C1CCCCC/C1=C\c1cccc(F)c1 | > 100 |  | > 100 | > 100 | > 100 | > 100 | > 100 | > 100 |  |  |  |  |  |  |  |  |  | 
COc1ccc(/C=C2\CCCc3ccccc3C2=O)cc1 | > 44.5 | 37.1 | > 33.1 | 1.74 | > 100 |  | > 100 | 35.1 | 88.1 |  |  |  |  |  |  |  |  | 
COc1cc(S(=O)(=O)Nc2ccc(-c3csc(N4C(=O)C(Cl)C4c4ccccc4O)n3)cc2)ccc1Cl (stereo unspecified) | > 100 | > 100 | > 100 | 66.6 | > 100 | > 100 | > 100 |  | 91.9 |  |  |  |  |  |  |  |  | 
O=[N+]([O-])c1ccc(N2N=C(c3c(O)ccc4ccccc34)CC2c2ccc(Cl)cc2)c([N+](=O)[O-])c1 (stereo unspecified) | > 100 | > 100 | > 100 | > 100 | > 100 |  | 66.4 | > 100 | > 100 |  |  |  |  |  |  |  |  | 
O=C(O)Cn1c2c(c3c1-c1ccccc1C3=O)C(=O)CCC2 | > 100 | > 100 | > 100 | > 100 | > 100 | > 100 |  | > 100 | > 100 | > 100 | > 100 | > 100 | > 100 | > 100 |  | > 100 | 20 | > 100
